Reference: US11406707B2, “STAT3 phosphorylation during graft-versus-host disease” (H. LEE MOFFITT CANCER CENTER AND RESEARCH INSTITUTE, INC., priority 2014, dated 2022)

Experiments:
TH17 cells = experiment: Evaluation of TH17 responses (CD4+ IL-17A+ T cells, IL-17A ELISA); format: cell-based, human
Procedure: To optimize the detection of IL-17A producing cells, nylon-wool-purified T cells underwent CD4^+ magnetic-bead selection. The CD4^+ T cells were cultured in triplicate with allogeneic, mature moDCs (DC:T cell ratio 1:30, 1×10^6 T cells/1 ml medium in a 48-well plate, 37° C.) and treated with S3I-201 (50 or 100 μM) or DMSO. The medium was supplemented with IL-6 (10^5 IU/ml), TGF-β (4 ng/ml), and anti-IFN-γ mAb (10 μg/ml) to support TH17 growth. The T cells were harvested and stimulated with PMA/ionomycin for 5 h, with GolgiStop Protein Transport Inhibitor (BD Biosciences) added after 1 h of activation. TH17 cells were identified by surface CD3 and CD4 expression, followed by intracellular staining for IL-17A. The absolute number of IL-17A-producing CD4^+ T cells was obtained by timed acquisition.
The concentration of IL-17A was measured (anti-human IL-17A [homodimer] ELISA Ready-Set-Go; eBioscience) in the supernatant of identically prepared and drug-treated CD4 T-cell allo-MLRs (DC:T cell ratio 1:30, 1.5×10^5 T cells per 125 μl medium in a 96-well plate, 37° C.). After 5 days, PMA/ionomycin was added directly to the cultures and stimulated for 5 h. GolgiStop was omitted from the PMA/ionomycin activation step, to permit detection of IL-17A in the culture supernatants. The supernatants were collected, and the IL-17A protein concentration was measured in triplicate, per the manufacturer's instructions.

primed T-cells = experiment: Secondary alloMLR (3-day restimulation of primed T-cells) proliferation; format: cell-based, human
Description: Bulk donor T-cells were allostimulated with cytokine-matured, allogeneic moDCs at a DC:T-cell ratio of 1:30 as previously described (Florida Blood Services) [Betts, B C, et al. (2011) Blood 118:5330-9; Betts, B C, et al. […] Betts, B C, et al. (2011) Blood 118:5340-3]. […] Lower doses of each drug were used in these experiments to mimic expected physiologic concentrations [Siddiquee, K, et al. (2007) Proceedings of the National Academy of Sciences of the United States of America 104:7391-6; Zeiser, R, et al. (2008) Blood 111:453-62], and to better detect potential synergistic activity with the combination of rapamycin and S3I-201. After 5 days of culture at […]-cell proliferation was measured by a colorimetric assay per the manufacturer's instructions (CellTiter 96 Aqueous One Solution Cell Proliferation Assay [MTS]; Promega, Madison, Wis. USA) [Betts, B C, et al. (2011) Blood 118:5330-9; Betts, B C, et al. […] Betts, B C, et al. (2011) Blood 118:5340-3]. Absorbance/optical density (OD) was analyzed at 490 nm. Secondary alloMLR: […] Following priming, the T-cells were then rested and re-cultured with fresh first-party moDCs (DC:T-cell ratio of 1:30). […] After 3 days, T-cell proliferation was measured by a colorimetric assay as described (Promega). T-cells alone and PHA-stimulated T-cells served as negative and positive controls, respectively, for both the primary and secondary alloMLRs.

STAT3 = target: T1, STAT3 (Homo sapiens, UniProt P40763); experiment: IL-6-pulsed STAT3 phosphorylation in alloactivated T cells (flow cytometry); format: cell-based
T1 construct: endogenous in cells; host or cells: primary human T cells from healthy-donor PBMC, allostimulated by monocyte-derived dendritic cells
T1 sequence (P40763 whole entry): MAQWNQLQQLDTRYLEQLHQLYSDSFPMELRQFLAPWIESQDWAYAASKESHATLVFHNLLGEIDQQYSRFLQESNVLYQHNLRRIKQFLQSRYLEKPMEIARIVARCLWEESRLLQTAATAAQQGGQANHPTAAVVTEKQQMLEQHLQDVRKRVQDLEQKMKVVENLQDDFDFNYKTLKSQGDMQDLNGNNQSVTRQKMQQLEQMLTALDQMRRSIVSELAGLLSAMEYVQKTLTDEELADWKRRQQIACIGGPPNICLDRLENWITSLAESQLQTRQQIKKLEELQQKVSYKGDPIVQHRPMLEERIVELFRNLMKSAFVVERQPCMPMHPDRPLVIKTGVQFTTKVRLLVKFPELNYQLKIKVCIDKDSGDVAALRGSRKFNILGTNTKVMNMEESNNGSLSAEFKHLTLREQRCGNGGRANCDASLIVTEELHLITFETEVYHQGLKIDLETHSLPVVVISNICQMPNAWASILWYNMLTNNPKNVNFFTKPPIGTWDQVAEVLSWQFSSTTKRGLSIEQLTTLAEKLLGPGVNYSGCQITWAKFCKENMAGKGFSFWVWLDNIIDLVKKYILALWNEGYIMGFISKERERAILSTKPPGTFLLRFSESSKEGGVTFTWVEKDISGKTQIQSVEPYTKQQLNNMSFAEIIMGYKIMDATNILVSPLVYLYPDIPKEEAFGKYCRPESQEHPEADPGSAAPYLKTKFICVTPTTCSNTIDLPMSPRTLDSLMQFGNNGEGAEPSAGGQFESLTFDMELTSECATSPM
Description: To confirm selective STAT3 inhibition, T cells were first briefly allostimulated by moDCs (DC:T cell ratio 1:30) and then pulsed with the relevant STAT3- or -5-dependent cytokine in the presence or absence of S3I-201. The 3-day exposure to allogenic moDCs allows the responding T cells to increase CD25 expression and capacity to receive IL-2 signaling, while resting or stimulated T cells phosphorylate STAT3 in response to IL-6 [Betts, B. C., et al. (2011) Blood 118, 5330-5339]. DC-allostimulated T cells (1×10^6) were then exposed to S3I-201 (50 or 100 μM) or DMSO for 4 h in serum-free RPMI (Corning Cellgro) to reduce background phosphorylation, followed by a 15 min pulse with IL-6 (4000 IU/ml) or -2 (50 IU/ml). T-cell STAT phosphorylation was determined by surface staining for CD3, followed by fixation (CytoFix; BD Biosciences), permeabilization with cold methanol, and intracellular staining for STAT3 and -5. The phosphorylated STAT3 and -5 geometric MFI ratio was calculated by dividing the geometric MFI of the cytokine-pulsed cells by the geometric MFI of the corresponding fluorochrome isotype.

[1] = system: DC-allosensitized T-cell proliferation; experiment: allo-MLR T-cell proliferation (colorimetric MTS assay, stimulation index); format: cell-based, human; conditions: for T-cell proliferation: day 5
Procedure: Allo-MLRs consisted of T cells stimulated by cytokine-mature moDCs (DC:T-cell ratio 1:30, 1×10^5 T cells per 100 μl medium in a 96-well plate, 37° C.). […] The allogeneic moDC stimulators were matured with a cytokine cocktail and terminally differentiated, eliminating the need for irradiation [Betts, B. C., et al. (2011) Blood 118, 5330-5339]. T-cell proliferation was quantified by a colorimetric assay (CellTiter 96 AQueous One Solution Cell Proliferation Assay [MTS]; Promega, Madison, Wis.) on day 5, per the manufacturer's instructions, with absorbance quantified at 490 nm [Betts, B. C., et al. (2011) Blood 118, 5330-5339]. The stimulation index was calculated by dividing the OD of the allo-MLR by the OD of T cells alone. PHA-stimulated T cells served as a positive control. Identical allo-MLRs were cultured with CAS 285986-31-4, to determine the dose-response effect of STAT5 inhibition on allostimulated T-cell growth. For these initial experiments, the cultures were analyzed on day 4 because of the early rapid T-cell proliferation among the STAT5 inhibitor-treated wells. The stimulation index was determined as described.

[2] = S3I-201 50 or 100 μM, 5 day coculture with IL-6, TGF-β, anti-IFN-γ mAb

Cc1ccc(S(=O)(=O)OCC(=O)Nc2ccc(C(=O)O)c(O)c2)cc1 [S3I-201]
absolute numbers of CD4+, IL-17A+ T cells compared with DMSO (TH17 cells; [2]): significant reduction
frequency of CD4+, IL-17A+ T cells compared with DMSO (TH17 cells; [2]): significant reduction
IL-17A protein concentration in coculture supernatants (TH17 cells; S3I-201, 5 day coculture, ELISA): significant decrease
inhibition at 50 µM (primed T-cells; Homo sapiens, T-cell, S3I-201 50 μM, read-out: inhibition of proliferation in comparison to DMSO): 67%
proliferation of primed T-cells on rechallenge (primed T-cells; S3I-201 50 μM alone): significantly suppressed
IL-6-mediated STAT3 signaling (STAT3; S3I-201 50 and 100 μM, 4 h, 15 min IL-6 pulse): inhibited
concentration giving the highest degree of STAT3 inhibition selectivity (STAT3; STAT3 vs STAT5 phosphorylation): 50 µM
reduction in T-cell proliferation ([1]; S3I-201 50 μM added once day 0, readout day 5): 50%
T-cell proliferation ([1]; S3I-201 100 μM): complete impairment
T-cell proliferation ([1]; S3I-201 1 or 10 μM): little effect
T-cell proliferation in allo-MLRs compared with DMSO ([1]; S3I-201 50 or 100 μM, FIG. 1B): significantly reduced
